In patent publication US20080161258A1, “Hsp and Supraventricular Arrhythmia” (priority 2004, published 2008):
Entries after “also recorded” stand apart in the source; their conditions may differ.

Legend:
[1] = tested on: HSP27 and HSP70 expression in HL-1 myocytes; test: HSP expression in paced HL-1 myocytes (Western blot); type: cell-based, mouse; details: 0.1 μM GGA two hours prior to and during pacing, FIG. 3A
Procedure: (§1) The HL-1 atrial myocytes, developed from adult mouse atria^29 were obtained from Dr. William Claycomb (Louisiana State University, New Orleans, La., USA) and cultured as described before.^28
HL-1 myocytes (≧1×10^6 myocytes) were cultured on coverslips and subjected to a 10-fold rate increase (rapid pacing) by electrical field stimulation (5 Hz, 1.5 V/cm field strength; Grass S88 stimulator).^28 Elevation of HSP expression in cultured myocytes was accomplished in 3 ways: (I) by subjection to a modest heat stress at 43° C. for 30 min followed by overnight incubation at 37° C., (II) by incubation with 0.1 μM geranylgeranylacetone (GGA, gift from M. Kawai, Japan) two hours prior to and during pacing and (III) by transfection of pHSP70-YFP or pHSP27 24 hrs prior to pacing.
For Western-blot analysis, frozen RAAs and LAAs were used for protein isolation as described previously.^6 For the isolation of proteins from HL-1 myocytes, the cells were lysed by the addition of SDS-PAGE sample buffer followed by sonication before separation on 10% PAA-SDS gels (1.10^5 cells/slot). […] Signals were detected by the ECL-detection method (Amersham, The Netherlands) and quantified by densitometry. […]

[2] = tested on: HL-1 myocytes; test: Pacing-induced myolysis in HL-1 myocytes (myosin immunofluorescence); type: cell-based, mouse
From the text: as §1
Lipofectamine (Life technologies, The Netherlands) was used for transient transfections according to instructions of the manufacturer. pHSP70-YFP encodes a functional human HSP70 fused to YFP under control of a CMV promoter. pHSP27 encodes human HSP27 under control of CMV promoter. […]
After subjecting HL-1 myocytes to rapid pacing, the cells were fixed for 10 minutes in 100% methanol (−20° C.), dried and blocked in 5% BSA (20 minutes room temperature). […] Images of FITC, YFP or CY3 and DAPI fluorescence were obtained by using a Leica confocal laser-scanning microscope (Leica TCS SP2).
For the quantification of the amount of myolysis, at least 5 fields were examined with to a total amount of 250-500 myocytes, and myosin disruption (characteristic for myolysis^12) was scored by three independent observers blinded for the experimental groups. […]

[3] = tested on: HL-1 cells; test: Calcium transients and cell shortening in tachypaced HL-1 cells; type: cell-based, mouse
Procedure: In addition to myolysis, we studied the effects of short-term tachypacing of HL-1 cells (3 Hz for 2, 3 and 4 hrs) on Ca^2+ transients (CaTs) and cell shortening (CS) in HL-1 cells, with and without pre-treatment to induce HSP expression: the heat shock stress response inducer geranylgeranylacetone (GGA, 10 μM) or heat shock at 43° C. for 20 minutes (HS) or transient transfection with human HSP27 (pHSP27). In brief, myocytes were field-stimulated with 10-ms twice-threshold strength square-wave pulses. CS was measured with a video edge-detector connected to a charge-coupled device. To record CaTs, myocytes were incubated with indo-1 AM (5-μM) for 5-7 min. Myocytes were then superfused at room temperature for at least 40 min to wash out extracellular indicator and to allow for deesterification. Background and cell autofluorescence were cancelled by zeroing the photomultiplier output in a cell without indo-1 loading. Ultraviolet light from a 100-W mercury arc lamp passing through a 340-nm interference filter (±10 nm bandwidth) was reflected by a dichroic mirror into a ×40 oil-immersion fluor objective for excitation of intracellular indo-1 (excitation beam ˜15 μm diameter). Exposure of the cell to UV light (5-10 of every 30-60 s) was controlled by an electronic shutter (Optikon, model T132) to minimize photobleaching. Emitted light (<550 nm) was reflected into a spectral separator, passed through parallel filters at 400 and 500 nm (+10 nm), detected by matched photomultiplier-tubes (Hamamatsu R2560 HA) and electronically filtered at 60 Hz. The ratio of fluorescence signals (R400/500) was digitized (1 kHz) and used as the index of [Ca^2+]i^(48).

[4] = tested on: HL-1 cells; test: Calcium current density (ICa++) in paced HL-1 cells; type: cell-based, mouse; details: HL-1 cells paced for 4 h; GGA two hours prior to and during pacing; FIG. 5
Procedure: I-V relationships of peak ICα++ in non-paced (CON) and paced (PC) HL-1 cells. ICα++ was recorded using 300-ms voltage steps to between −70 and +70 mV from −80 mV.

[5] = tested on: dogs subjected to atrial tachypacing; test: Atrial tachycardia-induced remodeling in dogs (atrial tachypacing); type: in vivo, dog; details: ATP 400 bpm for 7 days
Procedure: The effect of HSP induction on in vivo AF-promotion was examined studying the effect of GGA on atrial tachycardia-induced remodeling in dogs (49). Dogs were subjected to atrial tachypacing (ATP) at 400 bpm for 7 days in the absence (ATP, n=5) and presence of oral GGA treatment (120 mg/kg/day, n=3), starting 3 days prior to ATP onset and continued throughout ATP. Results were compared to a non-paced control group (NP, n=5 dogs). Mongrel dogs (20 to 37 kg) were anesthetized with ketamine (5.3 mg/kg IV), diazepam (0.25 mg/kg IV), and halothane (1.5%). Unipolar leads were inserted through jugular veins into the right ventricular (RV) apex and right atrial (RA) appendage and connected to pacemakers (Medtronic) in subcutaneous pockets in the neck. A bipolar electrode was inserted into the RA for stimulation and recording during serial electrophysiological study (EPS). AV block was created by radiofrequency ablation to control ventricular response during atrial tachypacing (ATP). The RV pacemaker was programmed to 80 bpm. For open-chest EPS, dogs were anesthetized with morphine (2 mg/kg SC) and α-chloralose (120 mg/kg IV, followed by 29.25 mg·kg^−1·h^−1), and ventilated mechanically. Body temperature was maintained at 37° C., and a femoral artery and both femoral veins were cannulated for pressure monitoring and drug administration. A median sternotomy was performed, and bipolar electrodes were hooked to the RA and left atrial (LA) appendages for recording and stimulation. A programmable stimulator (Digital Cardiovascular Instruments) was used to deliver twice-threshold currents. Five silicon sheets containing 240 bipolar electrodes were sutured onto the atrial surfaces as previously described.^6-8http://circ.ahajournals.org/cgi/content/full/110/16/2313-R7-155347http://circ.ahajournals.org/cgi/content/full/110/16/2313-R8-155347 Atrial effective refractory periods (ERPs) were measured at multiple basic cycle lengths (BCLs) in the RA and LA appendages. AF vulnerability was determined as the percentage of atrial sites at which AF could be induced by single extrastimuli. After 24 hours for recovery, a baseline closed-chest EPS was performed under ketamine/diazepam/isoflurane anesthesia, and then ATP (400 bpm) was initiated. Closed-chest EPS was repeated at day 7 of ATP, and a final open-chest EPS was performed under morphine/α-chloralose anesthesia.

geranylgeranylacetone [GGA]
HSP27 expression [1]: substantial elevations; also recorded: induces the expression
HSP70 expression [1]: substantial elevations; also recorded: induces the expression
Immunofluorescent staining of myosin in paced myocytes ([2]; 16 hrs paced HL-1 myocytes, FIG. 3B): myosin-staining remains diffusely distributed in the cytoplasm
pacing-induced myolysis ([2]; HL-1 myocytes, rapid pacing 5 Hz, GGA 0.1 μM two hours prior to and during pacing, or transfection 24 hrs prior to pacing): significant reduction
pacing-induced CaT and CS reductions ([3]; HL-1 cells tachypaced 3 Hz for 2, 3 and 4 hrs, GGA 10 μM or transient transfection with pHSP27): significantly prevented
reduction of Ca2+ transients (CaT) after pacing ([3]; HL-1 cells, 3 Hz, 2 hrs pacing, GGA 10 μM, p=0.01 vs tachypaced without GGA): 2%±6%
reduction of cell-shortening (CS) after pacing ([3]; HL-1 cells, 3 Hz, 2 hrs pacing, GGA 10 μM, p=0.03 vs tachypaced without GGA): 11%±3%
pacing-induced reduction of calcium current density (Ica++) [4]: the reduction was prevented; also recorded: strongly
ATP-induced changes (DAF, ERP, vulnerability) ([5]; oral GGA 120 mg/kg/day): almost completely suppressed
duration of induced AF (DAF) ([5]; oral GGA 120 mg/kg/day starting 3 days prior to ATP, p<0.05 vs ATP): 39 ± 15 s
atrial effective refractory period (ERP) ([5]; oral GGA 120 mg/kg/day, basic cycle length 300 ms, p<0.05 vs ATP): 102 ± 3 ms
atrial vulnerability to AF (% of atrial sites in which AF was induced by a single extra stimulus) ([5]; oral GGA 120 mg/kg/day, p<0.05 vs ATP): 13±7%
